PMC8119466, “A screen of FDA-approved drugs identifies inhibitors of protein tyrosine phosphatase 4A3 (PTP4A3 or PRL-3)” (Scientific Reports, 2021)
Where two headings read alike, the source gives them in different places.

Key:
Type in all cases: biochemical
recombinant PRL-2 = biological target: T1, recombinant PRL-2 (Homo sapiens, UniProt Q12974); experiment: In vitro phosphatase assay (DiFMUP hydrolysis), PRL-2;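 note: PRL-2 activity read as DiFMUP hydrolysis after 20 min at room temperature with drug, enzyme first pre-reduced at 4 °C for 20 min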
T1 construct: 6xHis (N, cleaved yes); made in house; host or cells: E. coli One Shot BL21 Star
T1 sequence (Q12974 1-167): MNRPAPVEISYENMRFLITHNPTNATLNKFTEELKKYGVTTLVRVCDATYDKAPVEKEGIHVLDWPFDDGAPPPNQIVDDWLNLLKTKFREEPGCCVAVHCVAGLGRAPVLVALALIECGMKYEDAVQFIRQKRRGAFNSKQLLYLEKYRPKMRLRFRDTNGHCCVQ

recombinant PRL-1 = biological target: T2, recombinant PRL-1 (Homo sapiens, UniProt Q93096); experiment: In vitro phosphatase assay (DiFMUP hydrolysis), PRL-1; note: test concentration or dose not given here
T2 construct: 6xHis (N, cleaved yes); made in house; host or cells: E. coli One Shot BL21 Star
T2 sequence (Q93096 1-173): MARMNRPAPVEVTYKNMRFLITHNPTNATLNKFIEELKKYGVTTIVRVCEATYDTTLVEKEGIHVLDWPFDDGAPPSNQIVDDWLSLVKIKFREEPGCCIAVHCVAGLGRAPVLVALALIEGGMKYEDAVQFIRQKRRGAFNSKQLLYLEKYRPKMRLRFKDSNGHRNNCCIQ

recombinant PRL-3 = biological target: T3, recombinant PRL-3 (Homo sapiens, UniProt O75365); experiment: In vitro phosphatase assay (DiFMUP hydrolysis), PRL-3; note: test concentration or dose not given here
T3 construct: 6xHis (N, cleaved yes); made in house; host or cells: E. coli One Shot BL21 Star
T3 sequence (O75365 whole entry): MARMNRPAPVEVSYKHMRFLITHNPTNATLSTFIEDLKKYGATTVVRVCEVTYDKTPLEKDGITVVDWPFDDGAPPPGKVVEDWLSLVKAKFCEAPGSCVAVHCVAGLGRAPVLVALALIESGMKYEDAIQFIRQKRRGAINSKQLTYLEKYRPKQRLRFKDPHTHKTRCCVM

[1] = FDA-approved drug screen, compared to DMSO
[2] = FDA-approved drug screen, activity compared to DMSO

Row | Compound | % Phosphatase Activity (compared to DMSO) PRL-2 (recombinant PRL-2; [1]) | % Phosphatase Activity (compared to DMSO) PRL-1 (recombinant PRL-1; [1]) | % Phosphatase Activity (compared to DMSO) PRL-3 (recombinant PRL-3; [1]) | also measured
1 | O=C(O[C@H]1C[N+]2(CCCOc3ccccc3)CCC1CC2)C(O)(c1cccs1)c1cccs1 [Aclidinium Bromide] |  |  |  | % Phosphatase Activity (compared to DMSO) PRL-2 (recombinant PRL-2): 117%; % Phosphatase Activity (compared to DMSO) PRL-1 (recombinant PRL-1): 106%; % Phosphatase Activity (compared to DMSO) PRL-3 (recombinant PRL-3): 90%
2 | Nc1ccc2cc3ccc(N)cc3nc2c1 [Proflavine Hemisulfate] | 61% | 81% | 100% | 
3 | CCOC(=O)C1=C[C@]2(CC)CCCN3CCc4c(n1c1ccccc41)[C@@H]32 [Vinpocetine] |  |  |  | % Phosphatase Activity (compared to DMSO) PRL-2 (recombinant PRL-2; [2]): 114%; % Phosphatase Activity (compared to DMSO) PRL-1 (recombinant PRL-1; [2]): 95%; % Phosphatase Activity (compared to DMSO) PRL-3 (recombinant PRL-3; [2]): 79%
4 | CCOC(=O)[N-]c1cn(N2CCOCC2)n[o+]1 [Molsidomine] | 110% | 99% | 79% | 
5 | CCOc1ccc2ccccc2c1C(=O)N[C@@H]1C(=O)N2[C@@H]1SC(C)(C)[C@@H]2C(=O)O [Nafcillin Sodium] | 108% | 98% | 60% | 
6 | CO/N=C(\C(=O)N[C@@H]1C(=O)N2C(C(=O)O)=C(CSc3nnnn3C)CS[C@H]12)c1csc(N)n1.CO/N=C(\C(=O)N[C@@H]1C(=O)N2C(C(=O)O)=C(CSc3nnnn3C)CS[C@H]12)c1csc(N)n1.Cl [Cefmenoxime hydrochloride] | 98% | 92% | 84% | 
7 | Escin | 73% | 72% | 95% | 
8 | CC(CCc1ccc(O)cc1)NCC(O)c1ccc(O)cc1.Cl (racemic) [Ractopamine HCl] | 113% | 103% | 100% | 
9 | CC(C)Cc1ccc(C(C)C(=O)O)cc1 (stereo not drawn) [Ibuprofen] | 87% | 99% | 82% | 
10 | COc1ccc(CN2CCN(C(c3ccc(F)cc3)c3ccc(F)cc3)CC2)c(OC)c1OC.Cl.Cl [Lomerizine HCl] | 118% | 97% | 84% | 
11 | Cc1ccc(C(=O)c2ccc(CC(=O)O)n2C)cc1 [Tolmetin Sodium] |  |  |  | % Phosphatase Activity (compared to DMSO) PRL-2 (recombinant PRL-2; [2]): 79%; % Phosphatase Activity (compared to DMSO) PRL-1 (recombinant PRL-1; [2]): 95%; % Phosphatase Activity (compared to DMSO) PRL-3 (recombinant PRL-3; [2]): 111%
12 | CSc1nc2cc(Cl)c(Oc3cccc(Cl)c3Cl)cc2[nH]1 [Triclabendazole] |  |  |  | % Phosphatase Activity (compared to DMSO) PRL-2 (recombinant PRL-2; [2]): 91%; % Phosphatase Activity (compared to DMSO) PRL-1 (recombinant PRL-1; [2]): 106%; % Phosphatase Activity (compared to DMSO) PRL-3 (recombinant PRL-3; [2]): 70%
13 | CC(=O)OCC[N+](C)(C)C [Acetylcholine Chloride] | 97% | 87% | 95% | 
14 | CCOc1ccc(NC(=O)CC(C)O)cc1 (stereo not drawn) [Bucetin] | 108% | 109% | 92% | 
15 | CC(=O)OCC(=O)[C@@]1(O)[C@H](C)C[C@H]2[C@@H]3CCC4=CC(=O)C=C[C@]4(C)[C@@]3(F)[C@@H](O)C[C@@]21C [Dexamethasone Acetate] | 93% | 90% | 86% | 
16 | CCN(CC)CCNC(=O)c1c(C)[nH]c(/C=C2\C(=O)Nc3ccc(F)cc32)c1C [Sunitinib Malate] |  |  |  | % Phosphatase Activity (compared to DMSO) PRL-2 (recombinant PRL-2; [2]): 76%; % Phosphatase Activity (compared to DMSO) PRL-1 (recombinant PRL-1; [2]): 80%; % Phosphatase Activity (compared to DMSO) PRL-3 (recombinant PRL-3; [2]): 65%
17 | C[C@H]1C[C@@H]2[C@H]([C@@H](O)C[C@@]3(C)[C@H]2CC[C@]3(O)C(=O)CO)[C@@]2(C)C=CC(=O)C=C12 [Methylprednisolone] | 95% | 90% | 92% | 
18 | COc1ccc(C(=O)N2CCCC2=O)cc1 [Aniracetam] | 104% | 102% | 75% | 
19 | Cc1nccn1CC1CCc2c(c3ccccc3n2C)C1=O.Cl (stereo not drawn) [Ondansetron HCl] | 108% | 103% | 96% | 
20 | NC(=O)c1ccc(I)c([N+](=O)[O-])c1 [Iniparib (BSI-201)] | 112% | 107% | 78% | 
